Measured values published in patent US20090311203A1, “GEM-DIFLUORIDE C-GLYCOPEPTIDE COMPOUNDS, THEIR PREPARATION AND USE PARTICULARLY FOR PRESERVATION OF BIOLOGICAL MATERIALS” (INSTITUT NATIONAL DES SCIENCES APPLIQUEES DE ROUEN (INSA), priority 2006, published 2009).
“And” between values parts separate entries of the source, which are not always exact repeats. Identical values can stand only once.

What was measured:
Format in all cases: cell-based
[1] = test system: primary adult skin fibroblasts; experiment: Protection of fibroblasts against UV-C exposure; details: 37° C., 8.6 mM; for cell protection against UV (in words): UV-C 2 hours; for live cells still observed: UV-C (254 nm) for 2 hours
Method: In the following experiments, the studies were conducted at 37° C. on adult primary skin fibroblasts. The cells were exposed to UV-C irradiation for 2 hours in the presence of AAGP derivatives.

HELA cells = experiment: Survival of HELA cells subjected to UVC; details: exposed to UVC; low concentrations; FIGS. 37, 38 and 39
Method: FIGS. 37, 38 and 39 are representations of the effects of the various derivatives on the survival of HELA cells subjected to UVC.
Studies were conducted on HELA cells, exposed to UVC, in the presence of the various synthesised compounds, at low concentrations.

[2] = test system: primary adult skin fibroblasts; experiment: Preservation of fibroblasts at low temperature (−3° C.); details: 8.6 mM
Method: The purpose of the following experiment is to test the preservation activity of AAGP 11 compounds at low temperatures.
The cells are thus incubated at −3° C. in the presence of the compound AAGP 11.

SMILES | cell protection against UV (in words) [1] | survival of HELA cells compared to the control (in words) (HELA cells) | further results
COC(=O)[C@H](C)NC(=O)[C@H](CCCCNC(=O)C(F)(F)[C@]1(O)O[C@H](COCc2ccccc2)[C@H](OCc2ccccc2)[C@H](OCc2ccccc2)[C@H]1OCc1ccccc1)NC(=O)OCc1ccccc1 [AAGP-15] | excellent protective properties |  | 
C[C@H](NC(=O)[C@@H](N)CCCCNC(=O)C(F)(F)[C@]1(O)O[C@H](CO)[C@H](O)[C@H](O)[C@H]1O)C(=O)O [Compound 11] | high level of cell | Very satisfactory results | survival ([2]; after 6 days at −3° C., serum-free medium with 0.5 mM EDTA, control cells all dead): approximately 100% survival; cell preservation activity at low temperature (in words) ([2]; −3° C., listed as AAGP-11): very high preservation activity and 11 displays a very high; live cells still observed ([1]; after 72 hours, serum-free medium with 0.5 mM EDTA, all control cells dead): 92% live cells are still; live cells still observed ([1]; after 4 days, almost all dead in the control): After 4 days, 60% live
C[C@H](NC(=O)[C@@H](N)CCCNC(=O)C(F)(F)[C@]1(O)O[C@H](CO)[C@H](O)[C@H](O)[C@H]1O)C(=O)O [Compound 26] |  | inferior results compared to the control | 
N[C@@H](CCCCNC(=O)C(F)(F)[C@]1(O)O[C@H](CO)[C@H](O)[C@H](O)[C@H]1O)C(=O)NCC(=O)O [Compound 30] |  | improve the survival of these cells compared to the control | 
C[C@H](NC(=O)[C@@H](N)CCCCNC(=O)C(F)(F)[C@]1(O)O[C@H](CO)[C@H](O)[C@H](O)[C@H]1O)C(=O)O [Compound 12] |  | inferior results compared to the control | 
